Patent US20230127944A1, “BROAD-SPECTRUM CARBAPENEMS” (priority 2019, published 2023)
Converted amounts (≈) assume the structure as drawn.

Columns and labels:
Type in all cases: cell-based
[1] = tested on: S. aureus ATCC 33591 (methicillin-resistant); experiment: broth microdilution MIC assay, S. aureus 33591; conditions: Staphylococcus aureus, ATCC33591; S. aureus 33591, methicillin-resistant; read-out: MIC, S. aureus 33591
Description: (§1) To determine the ability of test compounds to inhibit the growth of bacterial strains, classic cell-based broth microdilution MIC assays were employed. MIC assays are performed according to CLSI methods except where otherwise noted (CLSI, 2011 and CLSI, 2009). The reference strains S. aureus ATCC 29213 (methicillin sensitive), S. aureus ATCC 33591 (methicillin-resistant), E. coli ATCC 25922 (wild-type/QC strain), P. aeruginosa ATCC 27853 (wild-type/QC strain), and the clinical isolate P. aeruginosa PA 8 were used to determine the ability of the exemplary carbapenem compounds to inhibit bacterial growth. An expanded panel of methicillin resistance S. aureus (MRSA) and Pseudomonas was also used to determine the ability of exemplary carbapenem compounds to inhibit bacterial growth across a broader representation of those species. To determine activity in MRSA and in addition to S. aureus ATCC 33591, S. aureus USA 300 and USA 600, some of the most common clones found to cause human infection, were also used. To further gauge the impact on the carbapenem compounds due to various resistance mechanisms in Pseudomonas, the following strains were included: P. aeruginosa 35151 (hyper-permeable strain), P. aeruginosa ΔmexAB-OprM (an efflux pump knockout), and P. aeruginosa Paβ-173 (a clinical isolate of reduced carbapenem susceptibility). Briefly, cryo-preserved bacterial cultures of clinical strains are streaked for isolation on appropriate agar medium, in this case Mueller Hinton II agar. Following incubation to allow formation of colonies, these plates are sealed with parafilm and stored refrigerated for up to two weeks. For preparation of assay inocula and to ensure low variability, at least 5 colonies are picked from the agar plates with an inoculating loop and aseptically transferred to a culture tube containing 3 mL of Mueller-Hinton Broth (supplemented with divalent cations to required levels based on Manufacturers' specification). The broth culture is grown for 3-5 hours at 37° C. with shaking at 200 rpm. Meanwhile, 2-fold serial dilutions of test compounds are conducted in a 96 well plate with a final volume of 75 μL per well at 2-fold the final desired concentration. After the dilution plates are set up the growing cultures are then diluted in a cuvette containing MH II broth and the optical density is measured at 600 nm. Inocula are diluted such that 75 μL of this culture in Mueller-Hinton Broth results in a starting bacterial concentration of 5×10^5 CFU/mL when added to the dilution plates. The plates are incubated 16-20 hours at 37° C. The MIC is read visually as the lowest concentration well with no bacterial growth.

[2] = tested on: S. aureus USA 300; experiment: broth microdilution MIC assay, S. aureus USA300; conditions: Staphylococcus aureus; S. aureus USA300 (MRSA); read-out: MIC, S. aureus USA300
Description: as §1

[3] = tested on: S. aureus USA 600; experiment: broth microdilution MIC assay, S. aureus USA600; conditions: Staphylococcus aureus; S. aureus USA600 (MRSA); read-out: MIC, S. aureus USA600
Description: as §1

[4] = tested on: E. coli ATCC 25922 (wild-type/QC strain); experiment: broth microdilution MIC assay, E. coli 25922; conditions: Escherichia coli, ATCC25922; read-out: MIC, E. coli 25922
Description: as §1

[5] = tested on: P. aeruginosa ATCC 27853 (wild-type/QC strain); experiment: broth microdilution MIC assay, P. aeruginosa 27853; conditions: Pseudomonas aeruginosa, ATCC27853; read-out: MIC, P. aeruginosa 27853
Description: as §1

[6] = tested on: P. aeruginosa 35151 (hyper-permeable strain); experiment: broth microdilution MIC assay, P. aeruginosa 35151; conditions: Pseudomonas aeruginosa, read-out: MIC, P. aeruginosa 35151
Description: as §1

[7] = tested on: P. aeruginosa ΔmexAB-OprM (an efflux pump knockout); experiment: broth microdilution MIC assay, P. aeruginosa ΔmexAB-OprM; conditions: Pseudomonas aeruginosa, read-out: MIC, P. aeruginosa ΔmexAB-OprM
Description: as §1

[8] = tested on: P. aeruginosa Paeβ-17; experiment: broth microdilution MIC assay, P. aeruginosa Paeβ-17; conditions: Pseudomonas aeruginosa, read-out: MIC, P. aeruginosa Paeβ-17
Description: as §1

Row | Structure (SMILES) | MIC [1] [µg/mL] | MIC [2] [µg/mL] | MIC [3] [µg/mL] | MIC [4] [µg/mL] | MIC [5] [µg/mL] | MIC [6] [µg/mL] | MIC [7] [µg/mL] | MIC [8] [µg/mL]
1 | C[C@@H](O)[C@H]1C(=O)N2C(C(=O)O)=C(SC3CN([C@H]4CC[C@H](NC(=N)N)C4)C3)[C@H](C)[C@H]12 [Example 11, (4R,5S,6S)-3-((1-((1S,3S)-3-guanidinocyclopentyl)azetidin-3-yl)thio)-6-((R)-1-hydroxyethyl)-4-methyl-7-oxo-1-azabicyclo[3.2.0]hept-2-ene-2-carboxylic acid] | 1 to 4 (≈ 2.36 to 9.44 µM) | 1 to 4 (≈ 2.36 to 9.44 µM) | < 1 | < 1 | 1 to 4 (≈ 2.36 to 9.44 µM) | < 1 | 1 to 4 (≈ 2.36 to 9.44 µM) | 8 to 32 (≈ 18.9 to 75.6 µM)
2 | C[C@@H](O)[C@H]1C(=O)N2C(C(=O)O)=C(SC3CN([C@@H]4CC[C@H](NC(=N)N)C4)C3)[C@H](C)[C@H]12 [Example 12, (4R,5S,6S)-3-((1-((1R,3S)-3-guanidinocyclopentyl)azetidin-3-yl)thio)-6-((R)-1-hydroxyethyl)-4-methyl-7-oxo-1-azabicyclo[3.2.0]hept-2-ene-2-carboxylic acid] | 1 to 4 (≈ 2.36 to 9.44 µM) | 1 to 4 (≈ 2.36 to 9.44 µM) | 1 to 4 (≈ 2.36 to 9.44 µM) | < 1 | 1 to 4 (≈ 2.36 to 9.44 µM) | < 1 | 1 to 4 (≈ 2.36 to 9.44 µM) | 8 to 32 (≈ 18.9 to 75.6 µM)
3 | C[C@@H](O)[C@H]1C(=O)N2C(C(=O)O)=C(SC3CN([C@H]4CCC[C@H](N)C4)C3)[C@H](C)[C@H]12 [Example 13, (4R,5S,6S)-3-((1-((1S,3S)-3-aminocyclohexyl)azetidin-3-yl)thio)-6-((R)-1-hydroxyethyl)-4-methyl-7-oxo-1-azabicyclo[3.2.0]hept-2-ene-2-carboxylic acid] | 8 to 32 (≈ 20.2 to 80.9 µM) | 1 to 4 (≈ 2.53 to 10.1 µM) | 1 to 4 (≈ 2.53 to 10.1 µM) | < 1 | 8 to 32 (≈ 20.2 to 80.9 µM) | < 1 | 1 to 4 (≈ 2.53 to 10.1 µM) | 8 to 32 (≈ 20.2 to 80.9 µM)
4 | C[C@@H](O)[C@H]1C(=O)N2C(C(=O)O)=C(SC3CN([C@@H]4CCC[C@H](N)C4)C3)[C@H](C)[C@H]12 [Example 14, (4R,5S,6S)-3-((1-((1R,3S)-3-aminocyclohexyl)azetidin-3-yl)thio)-6-((R)-1-hydroxyethyl)-4-methyl-7-oxo-1-azabicyclo[3.2.0]hept-2-ene-2-carboxylic acid] | 1 to 4 (≈ 2.53 to 10.1 µM) | 1 to 4 (≈ 2.53 to 10.1 µM) | 1 to 4 (≈ 2.53 to 10.1 µM) | < 1 | 1 to 4 (≈ 2.53 to 10.1 µM) | < 1 | 1 to 4 (≈ 2.53 to 10.1 µM) | 8 to 32 (≈ 20.2 to 80.9 µM)
5 | C[C@@H](O)[C@H]1C(=O)N2C(C(=O)O)=C(SC3CN([C@H]4CCC[C@@H](N)C4)C3)[C@H](C)[C@H]12 [Example 15, (4R,5S,6S)-3-((1-((1S,3R)-3-aminocyclohexyl)azetidin-3-yl)thio)-6-((R)-1-hydroxyethyl)-4-methyl-7-oxo-1-azabicyclo[3.2.0]hept-2-ene-2-carboxylic acid] | 8 to 32 (≈ 20.2 to 80.9 µM) | 1 to 4 (≈ 2.53 to 10.1 µM) | 1 to 4 (≈ 2.53 to 10.1 µM) | < 1 | 1 to 4 (≈ 2.53 to 10.1 µM) | < 1 | 1 to 4 (≈ 2.53 to 10.1 µM) | 8 to 32 (≈ 20.2 to 80.9 µM)
6 | C[C@@H](O)[C@H]1C(=O)N2C(C(=O)O)=C(SC3CN([C@@H]4CCC[C@@H](N)C4)C3)[C@H](C)[C@H]12 [Example 16, (4R,5S,6S)-3-((1-((1R,3R)-3-aminocyclohexyl)azetidin-3-yl)thio)-6-((R)-1-hydroxyethyl)-4-methyl-7-oxo-1-azabicyclo[3.2.0]hept-2-ene-2-carboxylic acid] | 8 to 32 (≈ 20.2 to 80.9 µM) | 1 to 4 (≈ 2.53 to 10.1 µM) | 1 to 4 (≈ 2.53 to 10.1 µM) | < 1 | 8 to 32 (≈ 20.2 to 80.9 µM) | < 1 | 1 to 4 (≈ 2.53 to 10.1 µM) | 8 to 32 (≈ 20.2 to 80.9 µM)
7 | C[C@@H](O)[C@H]1C(=O)N2C(C(=O)O)=C(SC3CN(Cc4cnc(N)nc4)C3)[C@H](C)[C@H]12 [Example 22, (4R,5S,6S)-3-((1-((2-aminopyrimidin-5-yl)methyl)azetidin-3-yl)thio)-6-((R)-1-hydroxyethyl)-4-methyl-7-oxo-1-azabicyclo[3.2.0]hept-2-ene-2-carboxylic acid] | 8 to 32 (≈ 19.7 to 78.9 µM) | 1 to 4 (≈ 2.47 to 9.86 µM) | 1 to 4 (≈ 2.47 to 9.86 µM) | < 1 | 8 to 32 (≈ 19.7 to 78.9 µM) | < 1 | 1 to 4 (≈ 2.47 to 9.86 µM) | > 32
8 | C[C@@H](O)[C@H]1C(=O)N2C(C(=O)O)=C(SC3CN(Cc4ccc(N)nc4)C3)[C@H](C)[C@H]12 [Example 23, (4R,5S,6S)-3-((1-((6-aminopyridin-3-yl)methyl)azetidin-3-yl)thio)-6-((R)-1-hydroxyethyl)-4-methyl-7-oxo-1-azabicyclo[3.2.0]hept-2-ene-2-carboxylic acid] | 8 to 32 (≈ 19.8 to 79.1 µM) | 1 to 4 (≈ 2.47 to 9.89 µM) | 1 to 4 (≈ 2.47 to 9.89 µM) | < 1 | 8 to 32 (≈ 19.8 to 79.1 µM) | < 1 | 1 to 4 (≈ 2.47 to 9.89 µM) | > 32
9 | C[C@@H](O)[C@H]1C(=O)N2C(C(=O)O)=C(S[C@@H]3CCN(Cc4cnc(N)nc4)C3)[C@H](C)[C@H]12 [Example 24, (4R,5S,6S)-3-(((R)-1-((2-aminopyrimidin-5-yl)methyl)pyrrolidin-3-yl)thio)-6-((R)-1-hydroxyethyl)-4-methyl-7-oxo-1-azabicyclo[3.2.0]hept-2-ene-2-carboxylic acid] | 8 to 32 (≈ 19.1 to 76.3 µM) | 1 to 4 (≈ 2.38 to 9.54 µM) | 1 to 4 (≈ 2.38 to 9.54 µM) | < 1 | 8 to 32 (≈ 19.1 to 76.3 µM) | < 1 | 1 to 4 (≈ 2.38 to 9.54 µM) | > 32
10 | C[C@@H](O)[C@H]1C(=O)N2C(C(=O)O)=C(S[C@@H]3CCN(Cc4ccc(N)nc4)C3)[C@H](C)[C@H]12 [Example 25, (4R,5S,6S)-3-(((R)-1-((6-aminopyridin-3-yl)methyl)pyrrolidin-3-yl)thio)-6-((R)-1-hydroxyethyl)-4-methyl-7-oxo-1-azabicyclo[3.2.0]hept-2-ene-2-carboxylic acid] | 8 to 32 (≈ 19.1 to 76.5 µM) | 1 to 4 (≈ 2.39 to 9.56 µM) | 1 to 4 (≈ 2.39 to 9.56 µM) | < 1 | 8 to 32 (≈ 19.1 to 76.5 µM) | < 1 | 1 to 4 (≈ 2.39 to 9.56 µM) | > 32
11 | C[C@@H](O)[C@H]1C(=O)N2C(C(=O)O)=C(SC3CN(CC4CCN(C(=N)N)CC4)C3)[C@H](C)[C@H]12 [Example 26, (4R,5S,6S)-3-((1-((1-carbamimidoylpiperidin-4-yl)methyl)azetidin-3-yl)thio)-6-((R)-1-hydroxyethyl)-4-methyl-7-oxo-1-azabicyclo[3.2.0]hept-2-ene-2-carboxylic acid] | 1 to 4 (≈ 2.29 to 9.14 µM) | 1 to 4 (≈ 2.29 to 9.14 µM) | 1 to 4 (≈ 2.29 to 9.14 µM) | < 1 | 1 to 4 (≈ 2.29 to 9.14 µM) | < 1 | < 1 | 8 to 32 (≈ 18.3 to 73.1 µM)
